Experimental data published in patent US20240082212A1, “USE OF MDMA FOR TREATMENT OF STRESS-RELATED DISORDERS” (priority 2022, published 2024).
pIC50, pKi: −log10 of the molar value.

Legend:
Adrenergic α2B = target: T1, Adrenergic α2B (Homo sapiens, UniProt P18089); experiment: Eurofins Panlabs radioligand binding panel, adrenergic α2B; conditions: 10 uM
T1 sequence (P18089 1-450): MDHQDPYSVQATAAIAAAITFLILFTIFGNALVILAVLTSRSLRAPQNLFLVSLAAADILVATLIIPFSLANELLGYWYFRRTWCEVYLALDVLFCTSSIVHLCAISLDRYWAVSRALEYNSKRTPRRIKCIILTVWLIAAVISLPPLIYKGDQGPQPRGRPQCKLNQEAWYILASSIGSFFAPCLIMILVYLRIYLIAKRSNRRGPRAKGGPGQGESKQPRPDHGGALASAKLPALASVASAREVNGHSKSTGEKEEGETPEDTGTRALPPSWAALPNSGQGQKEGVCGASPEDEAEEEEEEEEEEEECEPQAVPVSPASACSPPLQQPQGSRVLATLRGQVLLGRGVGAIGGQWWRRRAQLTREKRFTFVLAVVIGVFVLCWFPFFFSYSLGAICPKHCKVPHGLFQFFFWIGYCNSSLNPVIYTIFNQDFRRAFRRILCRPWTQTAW

[1] = tested on: L-type calcium channel phenylalkylamine binding site; experiment: Eurofins Panlabs radioligand binding panel, L-type calcium channel; set-up: species or system Rat; conditions: for % inhibition of binding or activity: 10 uM; for pIC50 / pKi: 10 half-log concentrations, 0.3 nM to 10 μM, duplicate
C57BL/6 mice = experiment: Mouse extinction of conditioned fear assay; assay type: in vivo
Procedure: Racemic MDMA and R(−)-MDMA were evaluated for extinction of fear memory. The study utilized a mouse extinction of conditioned fear assay. A conditioned fear response is induced by pairing a previously neutral stimulus (conditioned stimulus; CS, such as an auditory tone) and aversive stimulus (unconditioned stimulus; US, such as […]). The fear response is later extinguished with repeated re-exposure to the CS in the absence of the US. This is a useful model for understanding learning and memory processes required for long-term recovery from PTSD, because it resembles exposure-based therapy, wherein repeated exposure to a fear-eliciting stimulus or memory promotes a reduced fear response to future reminders of the trauma. […] The current experiment investigated the ability of varying doses of R(−)-MDMA to facilitate extinction of conditioned fear in mice.
Standard rodent chow and water was available ad libitum.
The animal procedures were conducted according to established protocols approved by the IACUC committee and Melior Discovery Inc. Standard Operation Procedures (SOP). The behavioral procedure was adapted from Young et al., Transl Psychiatry 5, e634 (2015) with slight modifications. Mice were handled for two consecutive days for four minutes each day and injected with drug vehicles prior to the experiment. […] Fear conditioning was conducted in individual automated chambers built by Kinder Scientific (Poway, CA) that detect movement with infrared beams. On Day 1, Conditioning, each animal was placed in a chamber and presented a training session (Context A). An almond scent was present under the grid floor during the entire session. The training procedure consisted of a 2-minute habituation followed by a 30-second, 80 dB tone (CS). During the last 2 seconds of the tone, the animal received a 1 mA foot shock (US). This US-CS procedure occurred once for a total of one paired presentation of tone and shock. Freezing behavior (immobility) was recorded in 5-second intervals during the session. Percent baseline freezing behavior was determined in the 2-minute habituation period. After the session, animals were returned to their cages in the holding room. Animals were not manipulated on Day 2. On Day 3, Extinction Training, two days (48 hours) following fear conditioning, each animal was placed in Context B, in which the tactile and odor cues of the conditioning chambers were altered with a different (lemon) scent and black Plexiglas floor placed over the grid floor. Following a 2-minute acclimation period, the animal received four 30-second presentations of the CS (tone) in the absence of the US (foot shock), with a 45-second interval between presentations and 30 seconds of chamber consolidation. Immobility was recorded in 5-second intervals to measure baseline freezing response to the altered context, and freezing response to each tone/cue presentation. On Day 3, each animal was administered vehicle or racemic MDMA by intraperitoneal (IP) injection at 30 minutes prior, to the extinction training session. On Days 4, 8, and 13, Extinction Testing sessions, each animal was placed in Context B. Following a 2-minute acclimation period, each animal received four 30-second presentations of the CS (tone) in the absence of the US (foot shock), with a 45-second interval between presentations and 30 seconds of chamber consolidation. Immobility was recorded in 5-second intervals to measure baseline freezing response to the altered context, and freezing response to each tone/cue presentation.
Each animal in each treatment group received IP administration of vehicle or R(−)-MDMA or racemic MDMA at 30 minutes prior to extinction training on day 3. […] Injection volumes were 10 mL/kg. The study was run in 2 cohorts. Data were presented as mean±standard error of the mean of the percentage (%) of the session time spent freezing (absence of movement other than respiration) or activity counts during the 2-minute acclimation period.

[2] = rats; 1 week after 4 hourly SC injections at 10 mg/kg/injection (Biezonski et al., 2013); cited from earlier work
PTSD participants = conditions: cited from earlier work
[3] = Days 8 and 13, single R-MDMA 30 mg/kg IP on Day 3
[4] = Day 3, racemic MDMA 7.8 mg/kg IP
[5] = Day 4, racemic MDMA 7.8 mg/kg IP
[6] = Days 8 and 13, single racemic MDMA 7.8 mg/kg IP on Day 3

For `C[C@H](N)Cc1ccc2c(c1)OCO2` [S-MDA, S(+)-MDA], the “% inhibition of binding or activity” value (Adrenergic α2B) was 51%.

For `CNC(C)Cc1ccc2c(c1)OCO2` (single isomer, unassigned) [R-MDMA, R(−)-3,4-methylenedioxymethamphetamine], the “% inhibition of binding or activity” value [1] was 55%, the pIC50 [1] was 5.02 and the pKi [1] was 5.03. For the same compound, the freezing vs vehicle (C57BL/6 mice; Day 3 (extinction training, single IP dose 30 min prior), R-MDMA 17 and 30 mg/kg) was “reduced freezing”, the freezing vs vehicle (C57BL/6 mice; Day 3, R-MDMA 10 mg/kg IP) was “no significant effect on freezing” and the “activity counts vs vehicle” value (C57BL/6 mice; Day 3, all doses of R-MDMA (10, 17, 30 mg/kg IP)) was “Significantly increased activity counts”. For the same compound, the freezing vs vehicle (C57BL/6 mice; Day 4 (day after single dose), R-MDMA 10, 17 and 30 mg/kg IP) was “significantly reduced freezing”, the activity vs vehicle (C57BL/6 mice; Day 4, R-MDMA 10 mg/kg IP) was “without a significant increase in activity” and the “activity counts vs vehicle” value (C57BL/6 mice; Day 4, R-MDMA 30 mg/kg IP) was “significantly increased activity”. For the same compound, the “locomotor activity vs vehicle” value (C57BL/6 mice; Days 3, 4, 8, 13, R-MDMA 17 mg/kg IP on Day 3) was “significantly increased locomotor activity only on the day of administration”, the freezing significantly reduced (C57BL/6 mice; Days 8 and 13, single R-MDMA 17 mg/kg IP on Day 3) was “but not on Days 8 and 13” and the “activity counts vs vehicle” value (C57BL/6 mice; [3]) was “significant increases in activity”. For the same compound, the freezing vs vehicle (C57BL/6 mice; [3]) was “significantly reduced freezing”.

For `CNC(C)Cc1ccc2c(c1)OCO2` (racemic) [Racemic MDMA, 3,4-methylenedioxymethamphetamine], the “activity counts vs vehicle” value (C57BL/6 mice; [4]) was “significant increase in activity”, the freezing vs vehicle (C57BL/6 mice; [4]) was “significantly reduced freezing” and the “activity counts vs vehicle” value (C57BL/6 mice; [5]) was “significantly increased activity”. For the same compound, the freezing vs vehicle (C57BL/6 mice; [5]) was “significantly reduced freezing”, the “activity counts vs vehicle” value (C57BL/6 mice; [6]) was “significant increases in activity” and the freezing vs vehicle (C57BL/6 mice; [6]) was “significantly reduced freezing”. For the same compound, the “frontal cortical and striatal monoamine concentrations” value [2] was “significant reductions in frontal cortical 5-HT and 5-HIAA and striatal DOPAC and HVA concentrations”, the “vital signs (systolic and diastolic blood pressure and heart rate)” value (PTSD participants; MDMA group, Phase 3 clinical trial (Mitchell et al., 2021)) was “transient increase in vital signs” and the “efficacy for PTSD” value (PTSD participants; Phase 3 clinical trial (Mitchell et al., 2021)) was “efficacy”. The “transient increase in body temperature to” value (PTSD participants; two participants in the MDMA group) was 38.1 °C.

In the case of `CNC(C)Cc1ccc2c(c1)OCO2` (single isomer, unassigned) [S-MDMA, S(+)-MDMA], the “% inhibition of binding or activity” value [1] was 51%, the pIC50 [1] was 5.03 and the pKi [1] was 5.04.
